# Key:
# [1] = system: platelet aggregation stimulated by thrombin (gel-filtered platelets); assay: In vitro inhibition of thrombin-induced gel-filtered platelet aggregation assay; assay type: cell-based; settings: thrombin-induced gel-filtered human platelet aggregation; agonist thrombin 50 μL of 1 unit/mL; read-out: IC50 (μM) Thr GFP Aggr
# Protocol: In Vitro Inhibition Of Thrombin-Induced Gel-Filtered Platelet Aggregation Assay
# The percentage of platelet aggregation is calculated as an increase in light transmission of compound-treated platelet concentrate vs. control-treated platelet concentrate. Human blood is obtained from drug free, normal donors in tubes containing 0.13M sodium citrate. Platelet rich plasma (PRP) is collected by centrifugation of whole blood at 200×g for 10 min at 25° C. The PRP (5 mL) is gel filtered through Sepharose 2B (bed volume 50 mL), and the platelet count is adjusted to 2×10^7 platelets per sample. The following constituents are added to a siliconized cuvette: concentrated platelet filtrate and Tyrode's buffer (0.14M NaCl, 0.0027M KCl, 0.012M NaHCO3, 0.76 mM Na2HPO4, 0.0055M glucose, 2 mg/mL BSA and 5.0 mM HEPES @ pH 7.4) in an amount equal to 350 μL, 50 μL of 20 mM calcium and 50 μL of the test compound. Aggregation is monitored in a BIODATA aggregometer for the 3 min following the addition of agonist (thrombin 50 μL of 1 unit/mL).
# [2] = biological target: T1, Thrombin receptor (PAR-1) (Homo sapiens, UniProt P25116); assay: In vitro thrombin receptor binding assay; settings: CHRF membranes; tritiated 721-40 (Ser-pFPhe-Har-Leu-Har-Lys-Tyr-NH2) radioligand; read-out: IC50 (μM) Thr Recptr Bdg
# T1 construct: CHRF membranes (Jones, Biochim. Biophys. Acta 1992, 1136, 272) are thawed from −70° C; endogenous in cells; host or cells: CHRF cell membranes
# T1 sequence (P25116 22-425): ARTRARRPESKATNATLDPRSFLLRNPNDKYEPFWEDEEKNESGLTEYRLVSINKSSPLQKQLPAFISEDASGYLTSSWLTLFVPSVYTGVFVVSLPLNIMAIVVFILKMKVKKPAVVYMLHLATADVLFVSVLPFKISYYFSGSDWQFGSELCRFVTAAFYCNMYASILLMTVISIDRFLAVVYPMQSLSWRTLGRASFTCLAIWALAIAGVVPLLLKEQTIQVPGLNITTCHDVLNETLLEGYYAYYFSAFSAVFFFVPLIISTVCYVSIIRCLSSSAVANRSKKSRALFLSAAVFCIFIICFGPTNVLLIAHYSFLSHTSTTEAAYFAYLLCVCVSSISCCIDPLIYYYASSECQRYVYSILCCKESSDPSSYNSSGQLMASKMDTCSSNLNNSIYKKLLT
# Protocol: In Vitro Thrombin Receptor Binding Assay
# CHRF membranes (Jones, Biochim. Biophys. Acta 1992, 1136, 272) are thawed from −70° C., centrifuged at maximum speed for 5 min, washed twice with binding buffer (50 mM HEPES containing 5 mM MgCl2 and 0.1% BSA), and re-suspended in binding buffer (25 μg/[…]). 100 μL of membranes are added to the 24-Wallac plates and delivered to the Tomtech apparatus. In a typical experiment, 6 μL of samples (from a 125 μg/mL intermediary plate, 20% DMSO) and 44 μL buffer are delivered to the plates (final conc. of compounds is 3.7 μg/mL, 0.6% DMSO). Similarly, 6 μL 20% DMSO and 44 μL buffer are delivered to both column 1 (NSB) and column 12 (TB). […] Ser-pFPhe-Har-Leu-Har-Lys-Tyr-NH2 (SEQ. ID. No. 2) (721-40; 500 μM in deionized water) is added to column 1. 50 μL tritiated 721-40 (specific activity 46 Ci/mmol) is added to all the wells. The plates are mixed well for 20 seconds, incubated for 30 min, and then harvested with 10 mM HEPES/138 mM NaCl using the Skatron harvester. The filters (GF/C Brandel FPXLR 296) are presoaked 3 h in 0.5% polyethylenimine in HEPES/0.1M N-acetylglucosamine) are set in Saran™ wrap and dried for 3 min in the microwave, and placed in sample bags (Wallac 1450-432). 4.5 mL scintillation fluid (Wallac, Betaplate Scint 1205-440) is added. The bags are sealed, placed in filter cassettes (Wallac 1450-104), and analyzed on the microbeta counter.
SMILES,IC50 [1] [µM],IC50 [2] [µM]
"NCC[C@H](NC(=O)[C@H](Cc1ccc(F)c(F)c1)NC(=O)Nc1ccc2c(CN3CCCC3)nn(Cc3c(Cl)cccc3Cl)c2c1)C(=O)NCc1ccccc1 [Compound 1, Benzenepropanamide, N-[(1S)-3-amino-1-[[(phenylmethyl)amino]carbonyl]propyl]-α-[[[[[1-(2,6-dichlorophenyl)methyl]-3-(1-pyrrolidinylmethyl)-1H-indazol-6-yl]amino]carbonyl]amino]-3,4-difluoro-,(αS)-]",0.31,0.04
"NCC[C@H](NC(=O)[C@H](Cc1ccc(Cl)cc1)NC(=O)Nc1ccc2c(CN3CCCC3)nn(Cc3c(Cl)cccc3Cl)c2c1)C(=O)NCc1ccccc1 [Compound 2, Benzenepropanamide, N-[(1S)-3-amino-1-[[(phenylmethyl)amino]carbonyl]propyl]-α-[[[[[1-(2,6-dichlorophenyl)methyl]-3-(1-pyrrolidinylmethyl)-1H-indazol-6-yl]amino]carbonyl]amino]-4-chloro-, (αS)-]",0.26,20
"NCCNC(=O)[C@H](Cc1ccncc1)NC(=O)[C@H](Cc1ccc(F)c(F)c1)NC(=O)Nc1ccc2c(CN3CCCC3)nn(Cc3c(Cl)cccc3Cl)c2c1 [Compound 3, L-Alaninamide, 3,4-difluoro-N-[[[1-[(2,6-dichlorophenyl)methyl]-3-(1-pyrrolidinylmethyl)-1H-indazol-6-yl]amino]carbonyl]-L-phenylalanyl-N-(2-aminoethyl)-3-(4-pyridinyl)-]",0.5,0.03
C[C@@H](NC(=O)[C@H](CCN)NC(=O)[C@H](Cc1ccc(F)c(F)c1)NC(=O)Nc1ccc2c(CN3CCCC3)nn(Cc3c(Cl)cccc3Cl)c2c1)c1ccccc1 [Compound 4],0.32,0.15
NCC[C@H](NC(=O)[C@H](Cc1ccc(F)c(F)c1)NC(=O)Nc1ccc2c(CN3CCCC3)nn(Cc3c(Cl)cccc3Cl)c2c1)C(=O)N[C@H](CO)c1ccccc1 [Compound 5],0.66,0.32
NCCNC(=O)[C@H](Cc1cccs1)NC(=O)[C@H](Cc1ccc(Cl)cc1)NC(=O)Nc1ccc2c(CN3CCCC3)nn(Cc3c(Cl)cccc3Cl)c2c1 [Compound 6],0.3,5.8

# From patent US7417030B2, “Indazole peptidomimetics as thrombin receptor antagonists” (Ortho-McNeil Pharmaceutical, Inc., priority 1999, dated 2008)
